SMILES strings stand for the structures.

Holding throughout (format): biochemical
Experiment [1] deals with Herpes Simplex Virus Protease.
The target of experiment [2] is T1, HIV protease (Human immunodeficiency virus type 1 group M subtype B, UniProt P04585).
T1 construct: a key virally encoded protease enzyme of the pol gene

For experiment [3], the target named is T2, human cathepsin K (Homo sapiens, UniProt P43235).
T2 sequence (P43235 115-329): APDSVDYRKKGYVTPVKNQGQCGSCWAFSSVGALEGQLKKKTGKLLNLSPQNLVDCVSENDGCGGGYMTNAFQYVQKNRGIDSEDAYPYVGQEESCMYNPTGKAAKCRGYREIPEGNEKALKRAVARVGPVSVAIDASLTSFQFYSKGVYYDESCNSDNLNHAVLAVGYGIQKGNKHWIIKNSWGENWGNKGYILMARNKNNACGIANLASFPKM
Put plainly: Inhibition of human cathepsin K (fluorescence peptide assay). The following applies: compound concentration 106 μmolar; pH 5.5, 10 μmolar peptide. The protocol: The inhibition of human cathepsin K by the compound shown in Scheme N (106 μmolar) was determined. The peptides utilized were chromophoric Z-Phe-Arg-pNA*HCl and fluorogenic Z-Phe-Arg-AMC (each available from BACHEM Bioscience, Inc.). Stock solutions were prepared with 100% dimethylsulfoxide (DMSO) and stored at −20° C.
The final assay conditions were 100 mM NaOAc, pH of 5.5, 10 mM (R,R)-dithiothreitol (DTT), 10% DMSO, 120 mM NaCl, 10 μmolar of the peptide, and 12.5-0.012 μmolar inhibitor in twofold serial dilutions from 20× stocks in 100% DMSO. The enzyme working solution was a 1:3000 dilution of […] human cathepsin K into 100 mM of NaOAc, pH of 5.5, 10 mM DTT, 1.2 M NaCl.
Serial dilutions were performed in 100% DMSO. Columns 2-12 of an intermediate plate were filled with […] of 100% DMSO and column 1 was filled with […]. Next, […] of a 10 mM solution was added to column 1. A twofold serial dilution was prepared in columns 1-11 of the intermediate plate by sequential transfer of […] of the contents of each well in a column to the corresponding well of the next column, with mixing between each transfer. […] The fluorescence was monitored every 6 minutes for 72 minutes using a CytoFluor Series 4000 PerSeptive Biosystems multi-well fluorescence plate reader with the following settings: gain=50; 20 reads/well; 32° C.; lex=360±20 nm; and lem=440±120 nm.

Turning to `COP1(=O)N(Cc2ccccc2)CC=CCN1Cc1ccccc1` [Scheme K], the “inhibition of the protease” value in experiment [1] is recorded as 25.5%.
Still for that read-out and setting: the figure for `COP1(=O)N[C@@H](C(C)C)C=C[C@H](C(C)C)O1` (stereo partly drawn) [Scheme M] is 33.5%; for `C=CCOP1(=O)OCC=CCN1[C@H](C(=O)OC)C(C)C` (stereo partly drawn) [Scheme L] it is 34.7%.
Turning to `CC(C)(C)OC(=O)NC(Cc1ccccc1)CN1CC=CCN(C[C@H](Cc2ccccc2)NC(=O)OC(C)(C)C)P1(=O)Cl` (stereo partly drawn) [Scheme N], the “inhibition of the protease” value in experiment [1] was 44.4%; in experiment [2], 23%. In addition, in experiment [3], the “inhibition of human cathepsin K” value amounted to 34%.

The values above are taken from patent publication US6420586B1 (priority 2000, dated 2002).
